Source: patent US11560362B2, “Dibutylfluorene derivative and application thereof as photoinitiator” (HUI ZHOU HUAHONG NEW MATERIAL CO., LTD., priority 2017, dated 2023)

Assays:
[1] = Stability analysis: mobility of initiator compound from cured print into analog solutions, by HPLC; assay type: physicochemical; conditions: 40° C. for 10 days, calculated for 1 kg of food per 600 cm^2 printing area
Method: The cardboard is cut to a size of 10×10 cm, is completely immersed in two analog solutions, i. e., 100 ml distilled water and 3% acetic acid aqueous solution, sealing is performed well, and placement is performed at 40° C. for 10 days. The printed matter is taken out, and after standing, the contents of the initiator compounds in the analog solutions are directly analyzed by means of HPLC.

[2] = Solubility of solid photoinitiator in liquid polymerized monomer (HDDA or TPGDA); conditions: dissolved at 50-60° C., stored at room temperature

Row | SMILES | Mobility ([1]; 3% acetic acid) [µg/kg] | Mobility ([1]; Water) [µg/kg] | Solubility ([2]; Polymerized monomer 1: HDDA) | Solubility ([2]; Polymerized monomer 2: TPGDA)
1 | CCCCC1(CCCC)c2ccccc2-c2ccc(C(=O)C(C)(C)N3CCOCC3)cc21 [2-methyl-1-(2-(9,9-dibutylfluorenyl))-2-(N-morpholinyl)-1-acetone] | 60 | 50 |  | 
2 | CC(C)(C(=O)c1ccc(-c2ccccc2)cc1)N1CCOCC1 [2-methyl-1-(4-biphenyl)-2-morpholinyl-1-acetone] | 98 | 80 | 20 % (mass fraction) | 15 % (mass fraction)
